Results on 9 compounds are retold here after US6083920A, “Compositions for modulating intracellular inositol trisphosphate concentration” (priority 1996, dated 2000).

The subject of data set [1] is InsP3 signalling in primary chick cortical neurons. Nature of the data set: Phosphoinositide hydrolysis assay (InsP3 signalling) in cultured primary cortical neurons. The format is cell-based. The following applies: for Ins-P-n, modulator Lsm:Sph: 20 μM Lysosphingomyelin + 20 μM Sphingosine; for Ins-P-n, modulator Psy:Sph: 20 μM Psychosine + 20 μM Sphingosine; for fold induction at 100 µM: Gallus gallus, Cortical neurone, 20 min, read-out: Ins-P-n (agonist alone); for physiological effect in this system: amino group amidated, non-ionic. How it is done: Primary cultures of neurons were prepared from the telencephalon of white Leghorn chick embryos on the eighth day of their development (Rosenberg et al., J.Biol. Chem. 267:10601-10612, 1992). The neurons were seeded in 24-well plastic tissue culture plates that had been coated with L-polylysine. The density of the neurons was 10^5 cells per well, and they were cultured in Dulbecco's modified Eagle's medium/Ham's high glucose F-12 medium (1:1, vol:vol) containing 500 ng/L sodium selenite, 500 μg/L transferrin, and 165 pmole/L EGF. The cultures were maintained at 37° C. under 5% CO2 in air for 4 days, by which time the cells had differentiated into neurite-bearing cortical granulocytic neurons. These cultures of mature embryonic neurons were used for phosphoinositide hydrolysis assays (as described in Example 2).
Receptor-stimulated and basal unstimulated hydrolysis of phosphoinositides was measured by the following procedure. In order to label the cellular phosphoinositides metabolically, the primary cultures of chick cortical neurons (described in Example 1) were incubated overnight with 0.5 ml Dulbecco's modified Eagle's medium containing 1 μCi [^3 H]myo-inositol per well. The cells were then washed twice with 1 ml Dulbecco's phosphate-buffered saline (PBS) and 0.5 ml of PBS containing 4.5 g/L glucose was added. Sphingosine, psychosine, lysosulphatide, or lysosphingomyelin, prepared as the hydrochloride salt dissolved in water, were then added to produce the desired extracellular concentration in specific wells, […] The cells were then washed twice with 1 ml PBS, and pre-incubated for 15 minutes at 37° C. with 0.5 ml PBS containing 10 mM LiCl and the compound to be tested was added. […] The tubes were vortexed thoroughly, then centrifuged at 500×g for 5 minutes to separate the aqueous and chloroform phases. For each sample, a 1.5-ml aliquot of the upper (aqueous) phase was applied to a small column containing BioRad AG1X8 resin (formate form). Free [^3 H]inositol and [^3 H]glycerophosphoinositol were washed through the column with 5 ml of a solution containing 5 mM sodium borate and 60 mM sodium formate. The total phosphorylated [^3 H] inositol fraction was eluted from the column for radiometric scintillation spectrometry analysis with 3 ml 1.0 M ammonium formate/0.1 M formic acid;
In addition, a 0.5 ml aliquot of the lower (chloroform) phase of each sample was analyzed radiometrically by scintillation spectrometry in order to determine the quantity of lipid-bound [^3 H]myo-inositol. Estimation of phosphoinositide hydrolysis by phospholipase C is based upon the quantity of [^3 H]inositol phosphates produced, and is expressed as the percentage of the latter relative to total free and componential [^3 H]inositol (dpm ammonium formate+dpm chloroform fractions).
Cultured primary chick cortical neurons that were prelabeled with [^3 H]myo-inositol were examined for enhanced InsP3 signalling in response to various agonists including glutamate, aspartate, and the metabotropic […] receptor agonists ibotenate and quisqualate.

Data set [2] is described as follows: Membrane insertion potential.
The test system of data set [3] is calcium ion signalling in cortical neurons. Nature of the data set: Metabotropic receptor function: calcium ion signalling (fura 2) in intact cortical neurons. The format is cell-based, chick. The settings on record: 10 μM agonist, 30 minutes at 37° C., fura 2 fluorescence ratio. How it is done:
Metabotropic receptor function was examined in intact neurons by assaying lysosphingolipid modulation of calcium ion signalling. Approximately 1×10^6 cortical neurons were cultured on rectangular L-polylysine-coated coverslips and loaded with lysocerebroside or lysosphingomyelin to a level of 150±20 pmoles per mg protein. The neurons were returned to complete Ham's high glucose medium/DMEM (1:1, vol:vol) and infiltrated with 5 μM fura 2/AM (Molecular Probes, Eugene, Oreg.). Fura 2 is a calcium chelator whose fluorescence absorbance shifts to shorter wavelength upon calcium ion binding is measurable in intact cells. A change in intraneuronal calcium ion concentration was monitored as a change in the fluorescence spectrum.
The neurons were exposed to 10 μM glutamate agonist (for example, ibotenate) for 30 minutes at 37° C. The coverslips were then transferred to quartz cuvettes in medium containing 250 μM sulfinpyrazone to prevent fura 2/AM diffusion. Fluorescence ratios were recorded in a Perkin-Elmer LS-5 Fluorescence Spectrometer thermostatted at 37° C. at excitation wavelengths of 340 and 380 nm, a nd emission measurement at 500 nm. Calcium ion signalling in agonist-stimulated neurons was 3.0±0.2 arbitrary units for ibotenate-exposed neurons.

The next data set relates to rat C6 glioma cells. The settings on record: cited from earlier work.
[4] abbreviates: then 100 μM agonist 20 min, normalized to control = 1.00.

Regarding `N[C@@H](CCC(=O)O)C(=O)O` [Glutamate, glutamate], in data set [1] (setting [4]), the “Ins-P-n, modulator Lsm:Sph” value was found to be 3.00 ± 0.10 and the “Ins-P-n, modulator Psy:Sph” value is 3.00 ± 0.35. The fold induction at 100 µM in data set [1] was determined as 3.3 ± 0.05.

Turning to `CCCCCCCCCCCCC/C=C/[C@@H](O)[C@@H](N)CO[C@@H]1O[C@H](CO)[C@H](O)[C@H](OS(=O)(=O)O)[C@H]1O` [Lysosulphatide], the “inhibitory effect on InsP3 enhancement caused by sphingosine or metabotropic glutamate receptor agonists” value in data set [1] (cortical neurons) was “without inhibitory effect”.

`CCCCCCCCCCCCCCC[C@@H](O)[C@@H](N)CO` [sphinganine]: the “membrane insertion potential relative to sphingosine” value in data set [2] is “less than one third the membrane insertion potential of sphingosine”.

With `CN[C@@H]1C[C@H]2O[C@@](C)([C@@H]1OC)n1c3ccccc3c3c4c(c5c6ccccc6n2c5c31)C(=O)NC4` [staurosporine], the “influence on the effects of sphingosine, lysocerebroside, or lysosphingomyelin on InsP3 production” value in data set [1] (brain neurons responsive to excitatory amino acids) was “does not influence”.

In the case of `CCCCCCCCCCCCC/C=C/[C@@H](O)[C@H](CO)NC(C)=O` [N-acetyl sphingosine], the “physiological effect in this system” value in data set [1] was “little or no physiological effect”.

Take `N[C@@H](CC(=O)O)C(=O)O` [Aspartate, aspartate]: in data set [1] (setting [4]), the “Ins-P-n, modulator Lsm:Sph” value was 2.00 ± 0.05 and the “Ins-P-n, modulator Psy:Sph” value is recorded as 2.65 ± 0.50. Besides, in data set [1], the fold induction at 100 µM came to 2.7 ± 0.06. In addition, the “Ins-P-n, modulator Lsm” value in data set [1] (neurons preincubated with 20 μM Lysosphingomyelin 30 min, washed, then 100 μM agonist 20 min, normalized to control = 1.00) is recorded as 1.00 ± 0.06. Besides, the “Ins-P-n, modulator Psy” value in data set [1] (neurons preincubated with 20 μM Psychosine 30 min, washed, then 100 μM agonist 20 min, normalized to control = 1.00) was determined as 1.00 ± 0.06.

Take `NC(C(=O)O)c1cc(O)no1` (stereo not drawn) [Ibotenate, ibotenate]: the “calcium ion signalling in agonist-stimulated neurons” value in data set [3] was determined as 3.0±0.2 arbitrary units. In addition, in data set [1] (setting [4]), the “Ins-P-n, modulator Lsm:Sph” value is given as 2.10 ± 0.10 and the “Ins-P-n, modulator Psy:Sph” value is listed as 3.10 ± 0.35. In addition, the fold induction at 100 µM in data set [1] stood at 3 ± 0.1.

As to ceramide, in data set [1], the “physiological effect in this system” value is listed as “little or no physiological effect”.

For the compound `CN(C)CCCN1c2ccccc2Sc2ccc(Cl)cc21` [chlorpromazine, 10-(3-dimethylaminopropyl)-2-chlorphenothiazine], the “level of InsP3” value with rat C6 glioma cells is on record as “raises the level of InsP3”.
